Results from patent publication US20060241172A1, “Benzodioxane and benzodioxolane derivatives and uses thereof” (Wyeth, priority 2005, published 2006).
Counter-ions that a name gives are not always drawn.

| SMILES | melting point [°C] |
| --- | --- |
| CNCC1COc2cccc(-c3cc(F)ccc3F)c2O1 (stereo not drawn) (as salt: fumarate) [Compound I-29, {[8-(2,5-Difluorophenyl)-2,3-dihydro-1,4-benzodioxin-2-yl]methyl}methylamine] | 193 to 194 |
| Clc1ccccc1-c1cccc2c1OC(CNCC1CC1)CO2 (stereo not drawn) (as salt: fumarate) [Compound I-41, {[8-(2-Chlorophenyl)-2,3-dihydro-1,4-benzodioxin-2-yl]methyl}(cyclopropylmethyl)-amine] | 138 to 140 |
| C[C@]1(CN)COc2cccc(-c3ccccc3Cl)c2O1 (as salt: fumarate) [Compound I-49, {[(2S)-8-(2-Chlorophenyl)-2-methyl-2,3-dihydro-1,4-benzodioxin-2-yl]methyl}amine] | 149 to 152 |
| NC[C@H]1COc2cc(F)cc(-c3c(Cl)cccc3Cl)c2O1 (as salt: salt) [Compound I-47, {[(2S)-8-(2,6-Dichlorophenyl)-6-fluoro-2,3-dihydro-1,4-benzodioxin-2-yl]methyl}amine] | 165 to 167 |
| CCCNCC1COc2cccc(-c3ccc(Cl)cc3Cl)c2O1 (stereo not drawn) (as salt: fumarate) [Compound I-35, N-{[8-(2,4-Dichlorophenyl)-2,3-dihydro-1,4-benzodioxin-2-yl]methyl}propan-1-amine] | 178 to 179 |
| C=CCNCC1COc2cccc(-c3ccc(Cl)cc3Cl)c2O1 (stereo not drawn) (as salt: fumarate) [Compound I-40, N-{[8-(2,4-Dichlorophenyl)-2,3-dihydro-1,4-benzodioxin-2-yl]methyl}prop-2-en-1-amine] | 167 to 168 |
| CNCC1COc2cccc(-c3cccc(Cl)c3Cl)c2O1 (stereo not drawn) (as salt: fumarate) [Compound I-22, {[8-(2,3-Dichlorophenyl)-2,3-dihydro-1,4-benzodioxin-2-yl]methyl}methylamine] | 184 to 185 |
| C[C@]1(CN)COc2cccc(-c3ccc(Cl)cc3)c2O1 (as salt: fumarate) [Compound I-51, {[(2S)-8-(4-Chlorophenyl)-2-methyl-2,3-dihydro-1,4-benzodioxin-2-yl]methyl}amine] | 155 to 158 |
| CNCC1COc2cccc(-c3ccc(F)cc3F)c2O1 (stereo not drawn) (as salt: fumarate) [Compound I-28, {[8-(2,4-Difluorophenyl)-2,3-dihydro-1,4-benzodioxin-2-yl]methyl}methylamine] | 174 to 175 |
| Clc1ccc(-c2cccc3c2OC(CNCC2CC2)CO3)c(Cl)c1 (stereo not drawn) (as salt: fumarate) [Compound I-42, (Cyclopropylmethyl) {[8-(2,4-dichlorophenyl)-2,3-dihydro-1,4-benzodioxin-2-yl]methyl}amine] | 155 to 156 |
| NCC1COc2cccc(-c3cccc(Cl)c3Cl)c2O1 (stereo not drawn) (as salt: fumarate) [Compound I-6, {[8-(2,3-Dichlorophenyl)-2,3-dihydro-1,4-benzodioxin-2-yl]methyl}amine] | 211 to 212 |
| CNCC1COc2cccc(-c3ccccc3C(F)(F)F)c2O1 (stereo not drawn) (as salt: fumarate) [Compound I-20, N-Methyl-1-{8-[2-(trifluoromethyl)phenyl]-2,3-dihydro-1,4-benzodioxin-2-yl}methanamine] | 184 to 185 |
| CC(C)NCC1COc2cccc(-c3ccccc3Cl)c2O1 (stereo not drawn) (as salt: fumarate) [Compound I-36, N-{[8-(2-Chlorophenyl)-2,3-dihydro-1,4-benzodioxin-2-yl]methyl}propan-2-amine] | 199 to 200 |
| CNCC1COc2cccc(-c3cccc(OC)c3OC)c2O1 (stereo not drawn) (as salt: fumarate) [Compound I-30, {[8-(2,3-Dimethoxyphenyl)-2,3-dihydro-1,4-benzodioxin-2-yl]methyl}methylamine] | 159 to 160 |
| CNCC1COc2cccc(-c3cc(C)ccc3C)c2O1 (stereo not drawn) (as salt: fumarate) [Compound I-26, {[8-(2,5-Dimethylphenyl)-2,3-dihydro-1,4-benzodioxin-2-yl]methyl}methylamine] | 174 to 175 |
| CCNCC1COc2cccc(-c3ccc(Cl)cc3Cl)c2O1 (stereo not drawn) (as salt: fumarate) [Compound I-33, N-{[8-(2,4-Dichlorophenyl)-2,3-dihydro-1,4-benzodioxin-2-yl]methyl}ethanamine] | 179 to 180 |

More lines, now with the values ahead:

| melting point [°C] | SMILES |
| --- | --- |
| 220 to 222 | Cc1cccc(C)c1-c1cc(Cl)cc2c1O[C@@H](CN)CO2 (as salt: hydrochloride) [Compound I-69, (2S)-[6-Chloro-8-(2,6-dimethyl-phenyl)-2,3-dihydro-benzo[1,4]dioxin-2-yl]-methyl amine] |
| 197 to 200 | Cc1ccccc1-c1cc(F)cc2c1OC(CN)O2 (stereo not drawn) (as salt: hydrochloride) [Compound I-80, 1-[4-(2-Methyl-phenyl)-6-fluoro-1,3-benzodioxol-2-yl]methanamine] |
| 205 to 207 | NC[C@H]1COc2cc(Cl)cc(-c3cc(Cl)ccc3Cl)c2O1 (as salt: hydrochloride) [Compound I-67, (2S)-[6-Chloro-8-(2,5-dichloro-phenyl)-2,3-dihydro-benzo[1,4]dioxin-2-yl]-methyl amine] |
| 184 to 186 | COc1ccccc1-c1cc(F)cc2c1OC(CN)O2 (stereo not drawn) (as salt: hydrochloride) [Compound I-76, 1-[6-Fluoro-4-(2-methoxyphenyl)-1,3-benzodioxol-2-yl]methanamine] |
| 188 to 189 | COc1ccccc1-c1cc(Cl)cc2c1O[C@@H](CN)CO2 (as salt: hydrochloride) [Compound I-61, (2S)-[6-Chloro-8-(2-methoxy-phenyl)-2,3-dihydro-benzo[1,4]dioxin-2-yl]-methylamine] |
| 128 to 131 | COc1ccccc1-c1cccc2c1O[C@@](C)(CN)CO2 (as salt: fumarate) [Compound I-52, {[(2S)-8-(2-Methoxyphenyl)-2-methyl-2,3-dihydro-1,4-benzodioxin-2-yl]methyl}amine] |
| 197 to 199 | COc1cccc(-c2cc(Cl)cc3c2O[C@@H](CN)CO3)c1OC (as salt: hydrochloride) [Compound I-63, (2S)-[6-Chloro-8-(2,3-dimethoxy-phenyl)-2,3-dihydro-benzo[1,4]dioxin-2-yl]-methyl amine] |
| 231 to 233 | NC[C@H]1COc2cc(Cl)cc(-c3ccccc3C(F)(F)F)c2O1 (as salt: hydrochloride) [Compound I-62, (2S)-[6-Chloro-8-(2-trifluoromethyl-phenyl)-2,3-dihydro-benzo[1,4]dioxin-2-yl]-methylamine] |
| 225 to 227 | COc1ccc(OC)c(-c2cc(Cl)cc3c2OC(CN)O3)c1 (stereo not drawn) (as salt: hydrochloride) [Compound I-100, [6-Chloro-4-(2,5-dimethoxy-phenyl)-benzo[1,3]dioxol-2-yl]-methylamine] |
| 245 to 246 | COc1ccccc1-c1cc(Cl)cc2c1OC(CN)O2 (stereo not drawn) (as salt: hydrochloride) [Compound I-92, [6-Chloro-4-(2-methoxy-phenyl)-benzo[1,3]dioxol-2-yl]-methylamine] |
| 230 to 232 | COc1ccc(Cl)cc1-c1cc(Cl)cc2c1O[C@@H](CN)CO2 (as salt: hydrochloride) [Compound I-68, (2S)-[6-Chloro-8-(5-chloro-2-methoxy-phenyl)-2,3-dihydro-benzo[1,4]dioxin-2-yl]-methylamine] |
